Data as given in patent US20080103164A1, “USEFUL COMPOUNDS FOR HPV INFECTION” (priority 2004, published 2008).
pIC50: −log10 of the molar value.

Tested on: episomal HPV-16 DNA in W12-20850 cells
Assay: W-12 cellular assay: episomal HPV-16 DNA quantified by hybrid capture in W12-20850 cells
Assay type: cell-based, HPV16
Conditions: four days incubation, inhibition of episomal HPV-16 DNA relative to untreated control
Procedure: Compounds of the current invention are believed useful in the treatment and/or prophylaxis of conditions and diseases associated with HPV infection. Activity mediated through HPV was determined using the following W-12 cellular assay. The […] cell line used contains HPV16 DNA and was derived from a low-grade cervical dysplasia tissue by Margaret Stanley and subsequently clonally selected by Paul Lambert (University of Wisconsin). One of these clones, […]-20850, contains 1000 copies of episomal HPV16 DNA and was used in the cell-based assay. […]-20850 cells were routinely cultured with a gamma-irradiated (6000 rads) feeder layer of 3T3 cells. Assays, however, were run in the absence of a 3T3 feeder layer. […]-20850 and 3T3 cells were routinely split when they were sub-confluent. […]-20850 were grown in […] Medium which is constituted of 25% DMEM (Gibco BRL, Cat # 12430-047), 75% F12 Media (Gibco BRL, Cat # 11765-021) and 2.5% FBS. The additives include […] Adenine (Sigma, Cat # A-9795), […] Hydrocortisone (Calbiochem, Cat # 386698), […] Bovine Insulin (Sigma, Cat # 1-1882), 8.4 ng/ml cholera toxin (Fluka, Cat # 26694) and 10 ng/ml EGF (Invitrogen, Cat # 13247-051). 3T3 cells were grown in DMEM containing 10% FBS. Cell lines were incubated at 37° C., in the presence of 5% CO2. For the assay, […]-20850 cells were seeded into a 96 well plate-containing compound. Plates were incubated at 37° C. in the presence of 5% CO2, for four days. On the fourth day, cells were lysed and the amount of episomal HPV-16 DNA was quantified using a non-radioactive hybrid capture technique with HPV-16 specific capture and detection probes. The percent inhibition relative to untreated control cells was then determined. The hybrid capture assay is run in a 96 well plate format. Hybridization plates (Nunc Maxisorb Cat # 450320) were coated with a mixture of capture probe and ReactiBind solution for at least 4 hours and then washed with 0.2×SSC, 0.05% Tween-20 (SSCT) prior to blocking with 150 μl/well of 0.2 N NaOH, 1% Igepal, 10 mg/ml hsDNA for 6-8 hours. The hybridization was carried out by mixing 27 μl of lysed cells with 45 μl of denatured detection probe in 6M guanidine isothiocyanate. To prevent evaporation, 50 μl of mineral oil was added to each well. The plate was then heated to 90° C. for 6.5 minutes and the hybridization continued at 42° C. overnight. Assay plates were washed 6 times with SSC/T. Anti-digoxigenin HRP-conjugated Ab (Boehringer Mannheim 1207733, 1:5000) was incubated in the wells for 30 min at room temperature and washed with PBS/0.05% Tween-20. SuperSignal LBA substrate (Pierce Cat # 37070) was added, and chemiluminescence was measured using Wallac 1420 Victor plate reader.

| Structure (SMILES) | pIC50 (Human papillomavirus 16, 96 h) | pIC50 |
| --- | --- | --- |
| Cc1ccc(C2c3[nH]c4ccc(F)cc4c3CCN2C(=O)CCc2ccccc2)cc1 (stereo not drawn) [Example 7, 6-Fluoro-1-(4-methylphenyl)-2-(3-phenylpropanoyl)-2,3,4,9-tetrahydro-1H-β-carboline] | 6.67 | – |
| c1ccc(-c2ccnc(N3CCc4c([nH]c5ccccc45)C3c3ccc4c(c3)CCO4)n2)cc1 (stereo not drawn) [Example 36, 1-(2,3-dihydro-1-benzofuran-5-yl)-2-(4-phenyl-2-pyrimidinyl)-2,3,4,9-tetrahydro-1H-β-carboline] | 5.52 | – |
| Cc1ccc(C2c3[nH]c4ccccc4c3CCN2S(=O)(=O)c2ccc(N)cc2)cc1 (centres unmarked) [Example 17, (4-{[1-(4-Methylphenyl)-1,3,4,9-tetrahydro-2H-b-carbolin-2-yl]sulfonyl}phenyl)amine] | 5.00 | – |
| O=C(/C=C/c1ccccc1)N1CCc2c([nH]c3ccccc23)[C@@H]1c1ccc2c(c1)CCO2 [Example 31, (1S)-1-(2,3-dihydro-1-benzofuran-5-yl)-2-[(2E)-3-Phenyl-2-propenoyl]-2,3,4,9-tetrahydro-1H-β-carboline] | 5.70 | – |
| Cc1ccc(C2c3[nH]c4ccc(F)cc4c3CCN2C(=O)OCc2ccccc2)cc1 (stereo not drawn) [Example 8, Phenylmethyl 6-fluoro-1-(4-methylphenyl)-1,3,4,9-tetrahydro-2H-β-carboline-2-carboxylate] | 6.35 | – |
| CC(=O)N1CCc2c([nH]c3ccccc23)C1c1ccc(C)cc1 (stereo not drawn) [Example 18, 2-Acetyl-1-(4-methylphenyl)-2,3,4,9-tetrahydro-1H-β-carboline] | 5.30 | – |
| Cc1ccc(C2c3[nH]c4ccccc4c3CCN2S(=O)(=O)Cc2ccccc2)cc1 (stereo not drawn) [Example 15, 1-(4-Methylphenyl)-2-[(phenylmethyl)sulfonyl]-2,3,4,9-tetrahydro-1H-β-carboline] | 5.15 | – |
| c1cnc(N2CCc3c([nH]c4ccccc34)C2c2ccc3c(c2)OCO3)nc1 (stereo not drawn) [Example 33, 1-(1,3-benzodioxol-5-yl)-2-(2-pyrimidinyl)-2,3,4,9-tetrahydro-1H-β-carboline] | 5.30 | – |
| Cc1cn(-c2ccnc(N3CCc4c([nH]c5ccccc45)C3c3ccc4c(c3)CCO4)n2)cn1 (stereo not drawn) [Example 39, 1-(2,3-dihydro-1-benzofuran-5-yl)-2-[4-(4-methyl-1H-imidazol-1-yl)-2-pyrimidinyl]-2,3,4,9-tetrahydro-1H-β-carboline] | 5.70 | – |
| Cc1ccc([C@@H]2c3[nH]c4ccc(Cl)cc4c3CCN2C(=O)CCc2ccccc2)cc1 [Example 13, (1R)-6-Chloro-1-(4-methylphenyl)-2-(3-phenylpropanoyl)-2,3,4,9-tetrahydro-1H-β-carboline] | 5.10 | – |
| Cc1ccc(C2c3[nH]c4ccccc4c3CCN2C(=O)CCc2cccnc2)cc1 (stereo not drawn) [Example 21, 1-(4-Methylphenyl)-2-[3-(3-pyridinyl)propanoyl]-2,3,4,9-tetrahydro-1H-β-carboline] | 4.74 | – |
| c1ccc(-c2ccnc(N3CCc4c([nH]c5ccccc45)C3c3ccc4c(c3)OCO4)n2)cc1 (stereo not drawn) [Example 34, 1-(1,3-benzodioxol-5-yl)-2-(4-phenyl-2-pyrimidinyl)-2,3,4,9-tetrahydro-1H-β-carboline] | 5.70 | – |
| Cc1ccc(C2c3[nH]c4ccc(Br)cc4c3CCN2C(=O)OCc2ccccc2)cc1 (stereo not drawn) [Example 12, Phenylmethyl 6-bromo-1-(4-methylphenyl)-1,3,4,9-tetrahydro-2H-β-carboline-2-carboxylate] | 7.85 | – |
| Cc1ccc(C2c3[nH]c4ccc(Br)cc4c3CCN2C(=O)CCc2ccccc2)cc1 (stereo not drawn) [Example 11, 6-Bromo-1-(4-methylphenyl)-2-(3-phenylpropanoyl)-2,3,4,9-tetrahydro-1H-β-carboline] | 7.70 | – |
| Cc1ccc(C2c3[nH]c4cc(F)ccc4c3CCN2C(=O)CCc2ccccc2)cc1 (stereo not drawn) [Example 26, 7-Fluoro-1-(4-methylphenyl)-2-(3-phenylpropanoyl)-2,3,4,9-tetrahydro-1H-β-carboline] | 5.70 | – |
| O=C(/C=C/c1ccccc1)N1CCc2c([nH]c3ccccc23)C1c1ccc2c(c1)CCO2 (stereo not drawn) [Example 29, (1R/1S)-1-(2,3-dihydro-1-benzofuran-5-yl)-2-[(2E)-3-phenyl-2-propenoyl]-2,3,4,9-tetrahydro-1H-β-carboline] | – | 5.52 |
| COc1ccc2[nH]c3c(c2c1)CCN(C(=O)CCc1ccccc1)C3c1ccc(C)cc1 (stereo not drawn) [Example 23, 6-(Methyloxy)-1-(4-methylphenyl)-2-(3-phenylpropanoyl)-2,3,4,9-tetrahydro-1H-β-carboline] | 6.22 | – |
| COC(=O)N1CCc2c([nH]c3ccc(Cl)cc23)C1c1ccc(C)cc1 (stereo not drawn) [Example 2, Methyl 6-chloro-1-(4-methylphenyl)-1,3,4,9-tetrahydro-2H-β-carboline-2-carboxylate] | 7.17 | – |
| Cc1ccc(C2c3[nH]c4ccc(Cl)cc4c3CCN2C(=O)OCc2ccccc2)cc1 (stereo not drawn) [Example 4, Phenylmethyl 6-chloro-1-(4-methylphenyl)-1,3,4,9-tetrahydro-2H-β-carboline-2-carboxylate] | 7.66 | – |
| Cc1ccc(C2c3[nH]c4ccc(C)cc4c3CCN2C(=O)CCc2ccccc2)cc1 (stereo not drawn) [Example 25, 6-Methyl-1-(4-methylphenyl)-2-(3-phenylpropanoyl)-2,3,4,9-tetrahydro-1H-β-carboline] | 6.40 | – |
| COC(=O)N1CCc2c([nH]c3ccc(Br)cc23)C1c1ccc(C)cc1 (stereo not drawn) [Example 10, Methyl 6-bromo-1-(4-methylphenyl)-1,3,4,9-tetrahydro-2H-β-carboline-2-carboxylate] | 7.96 | – |
| Cc1ccc(C2c3[nH]c4ccccc4c3CCN2C(=O)CNC(=O)OCc2ccccc2)cc1 (centres unmarked) [Example 22, Phenylmethyl {2-[1-(4-methylphenyl)-1,3,4,9-tetrahydro-2H-b-carbolin-2-yl]-2-oxoethyl}carbamate] | 5.40 | – |
| Cc1ccc(C2c3[nH]c4ccccc4c3CCN2C(=O)CCc2ccccc2)cc1 (stereo not drawn) [Example 19, 1-(4-Methylphenyl)-2-(3-phenylpropanoyl)-2,3,4,9-tetrahydro-1H-β-carboline] | 6.00 | – |
| Cc1ccc(C2c3[nH]c4c(C)cccc4c3CCN2C(=O)CCc2ccccc2)cc1 (stereo not drawn) [Example 24, 8-Methyl-1-(4-methylphenyl)-2-(3-phenylpropanoyl)-2,3,4,9-tetrahydro-1H-β-carboline] | 5.70 | – |
| O=C(/C=C/c1ccccc1)N1CCc2c([nH]c3ccccc23)[C@H]1c1ccc2c(c1)CCO2 [Example 30, (1R)-1-(2,3-dihydro-1-benzofuran-5-yl)-2-[(2E)-3-phenyl-2-propenoyl]-2,3,4,9-tetrahydro-1H-β-carboline] | < 4.70 | – |
| Cc1ccc(C2c3[nH]c4ccccc4c3CCN2S(C)(=O)=O)cc1 (stereo not drawn) [Example 16, 1-(4-Methylphenyl)-2-(methylsulfonyl)-2,3,4,9-tetrahydro-1H-β-carboline] | 4.62 | – |
| c1ccc(-c2ccnc(N3CCc4c([nH]c5ccccc45)C3c3ccccc3)n2)cc1 (stereo not drawn) [Example 35, 1-phenyl-2-(4-phenyl-2-pyrimidinyl)-2,3,4,9-tetrahydro-1H-β-carboline] | 5.70 | – |
| Cc1ccc([C@H]2c3[nH]c4ccc(Cl)cc4c3CCN2C(=O)CCc2ccccc2)cc1 [Example 14, (1S)-6-Chloro-1-(4-methylphenyl)-2-(3-phenylpropanoyl)-2,3,4,9-tetrahydro-1H-β-carboline] | 7.82 | – |
| COC(=O)N1CCc2c([nH]c3ccc(F)cc23)C1c1ccc(C)cc1 (stereo not drawn) [Example 6, Methyl 6-fluoro-1-(4-methylphenyl)-1,3,4,9-tetrahydro-2H-β-carboline-2-carboxylate] | 6.44 | – |
